Assay results reported in patent US20130053425A1, “Method for Lowering Intraocular Pressure Using Gap Junction Blockers” (priority 2011, published 2013).

Experiments:
ciliary epithelium [1] = assay: In vitro short-circuit current across the ciliary epithelium (rabbit)
ciliary epithelium [2] = assay: In vitro short-circuit current across the ciliary epithelium (ox)
[3] = system: porcine ciliary epithelium; assay: Fluid flow (FF) across the ciliary epithelium in modified Ussing-type chamber; settings: aqueous addition of 3.5 mM heptanol, 25° C., n=6 (FIG. 2)
Text: The reasons being that firstly, no information was available at the time to teach the preparation an intact ciliary epithelium, which is required for fluid flow measurement, and secondly, even when an intact ciliary epithelium was used, there was no device available that would enable measurement of fluid flow across the ciliary epithelium. In view of this, the inventors invested a great deal of effort into developing a modified Ussing-type chamber, which enables fluid flow (FF) and potential difference across the ciliary epithelium to be measured simultaneously. Fundamentally, the Ussing-type chamber includes two hemi-chambers, between which an excised preparation of ciliary epithelium is mounted. […] The graduated capillary can be used to monitor the change in fluid volume inside the second hemi-chamber throughout the experiment, which is then calculated as FF rate. […] At a later stage, the inventors further incorporated electrodes into the FF chamber to enable both electrical parameters and FF to be monitored simultaneously. […] (A) The calculated FF rate in the blood-to-aqueous direction during the course of the experiment. (B) PD recorded simultaneously with the measurement of the capillary levels.

[4] = Topical administration of heptanol to rabbit eyes, intraocular pressure (IOP) in vivo; settings: topical administration of 1.0% heptanol to the eyes (FIG. 1)
Text: FIG. 1 illustrates the effects of topical administration of 1.0% heptanol to rabbit eyes.

ciliary epithelium [5] = assay: In vitro short-circuit current across the ciliary epithelium (pig)

CCCCCCCO [heptanol]
reduction of short-circuit current across the ciliary epithelium (ciliary epithelium [1]): ~80%
reduction of short-circuit current across the ciliary epithelium (ciliary epithelium [2]): ~80%
inhibition of fluid flow across the ciliary epithelium [3]: up to 78%
effectiveness in lowering intraocular pressure (IOP) [4]: inconclusive results
reduction of short-circuit current across the ciliary epithelium (ciliary epithelium [5]): ~80%
